# Residues, ends and D or L forms follow the SMILES beside them. *: point of attachment. pNA = O=[N+]([O-])c1ccc(N*)cc1
# Assays:
# Type in all cases: biochemical
# [1] = biological target: T1, human thrombin, wild-type (WT) (Homo sapiens, UniProt P00734); assay: Hydrolysis of chromogenic substrates (release of p-NA at 405 nm), Example 3; details: 5 mM Tris, 0.1% PEG, 200 mM NaCl, pH 8.0, 25° C.
# T1 construct: the B chain of thrombin commences with I1 and extends to E259; made in house
# Protocol: Citrated plasma was diluted 1:1 with isotonic saline, and the thrombin analogs were diluted with 0.1 M NaCl, 0.01 M CaCl2, 0.02 M Tris, pH 7.3 prior to testing. 100 μl of thrombin analog was then added to 200 μl of baboon plasma and the clotting time was determined using a fibrometer.
# (§1) The chromogenic substrates FPR and LDPR were synthesized by solid phase, purified by HPLC and analyzed by mass spectrometry. Progress curves of the release of p-NA following the hydrolysis of chromogenic substrate were measured at 405 nm as a function of substrate concentration and analyzed to extract the values of kcat/Km and kcat, after proper correction for product inhibition. […] Biotechnol.
# [2] = biological target: T2, human thrombin, variant W215A, SEQ ID NO: 1 (Homo sapiens, UniProt P00734, W590A); assay: as above; details: 5 mM Tris, 0.1% PEG, 200 mM NaCl, pH 8.0, 25° C.
# T2 construct: The B chain commences with I1 and extends to E259; made in house; host or cells: baby hamster kidney cells
# Protocol: Site-directed mutagenesis of human α-thrombin was carried out in a HPC4-pNUT expression vector as described in Arosio et al. Biochemistry 39: 8095-8101 (2000) and incorporated herein by reference in its entirety, using overlap extension PCR with two mutant oligonucleotides: upstream: 5-GGGCATCGTCTCAXXXGGTGAAGGCTG TG-3(SEQ ID NO: 7); downstream: 5-CACAGCCTTCACCXXXTGAGACGATGCCC-3 (SEQ ID NO: 8) and two flanking oligonucleotide primers, BgIII (upstream): 5-[…]-3 (SEQ ID NO: 9 and; EcoRI (downstream): 5-[…]-3 (SEQ ID NO: 10). For the generation of the double mutant variant W215A/E217A (WE) thrombin, the forward primer 5′-[…]-3′ (SEQ ID NO: 11) and the reverse primer 5′-[…]-3′ (SEQ ID NO: 12) were used. Expression of the variant thrombins was carried out in baby hamster kidney cells as described in Guinto et al. Proc. Natl. Acad. Sci. U.S.A. 96: 1852-1857 (1999) incorporated herein by reference in its entirety. The enzyme was activated with the prothrombinase complex for about 30 mins. at 37° C. and then purified to homogeneity by monoS FPLC using a linear gradient of 0.05 to 0.5 M NaCl in 5 mM MES (pH 6) at room temperature. Mutants were further checked for incomplete refolding or autolytic digestion by N-terminal amino acid sequencing. Electrospray mass spectrometry yielded molecular weights consistent with the mutations introduced and indicated identical glycosylation in wild-type and mutant constructs.
# as §1, with “All assays were carried out under experimental conditions of 5 mM Tris, 0.1% PEG, 145 mM NaCl, pH 7.4 at 37° C., unless otherwise specified. The” for “The”, “Biotechnol. 15: 146-149 (1997) and incorporated herein by reference in its entirety.” for “Biotechnol.”
# [3] = biological target: T1, human thrombin, wild-type (WT); assay: Hydrolysis of chromogenic substrate (progress curves of the release of p-nitroaniline at 405 nm), Example 4; details: 5 mM Tris, 0.1% PEG, 145 mM NaCl, pH 7.4, 37° C.
# Excerpt: WT, W215A and WE variant thrombins were expressed, purified, and characterized in detail as described by Cantwell & Di Cera. J. Biol. Chem. 275: 39827-39830 (2000), incorporated herein by reference in its entirety. WE was stored in aliquots frozen until used in the thrombosis or coagulation experiments. To confirm that injection of variant thrombin WE would be at least as safe as injection of WT in baboons, the procoagulant activities of the two thrombins were compared in baboon plasma prepared by pooling citrated plasma samples from five animals. Citrated plasma was diluted 1:1 with isotonic saline, and the thrombin analogs were diluted with 0.1 M NaCl, 0.01 M CaCl2, 0.02 M Tris, pH 7.3 prior to testing. 100 μl of thrombin analog was then added to 200 μl of baboon plasma and the clotting time was determined using a fibrometer. […]
# (§2) All assays were carried out under experimental conditions of 5 mM Tris, 0.1% PEG, 145 mM NaCl, pH 7.4 at 37° C. […] The values of kcat/Km and kcat were obtained from the analysis of progress curves of the release of p-nitroaniline (measured at 405 nm) as a function of substrate concentration taking into account product inhibition, when present. […] The inhibition of thrombin by antithrombin III in the presence of heparin, and the activation of protein C in the presence or absence of rabbit thrombomodulin were carried out and analyzed as described in Dang et al. Nat. […]
# [4] = biological target: T3, human thrombin, variant E217A (Homo sapiens, UniProt P00734, E592A); assay: as above; details: E217A; 5 mM Tris, 0.1% PEG, 145 mM NaCl, pH 7.4, 37° C.
# T3 construct: the B chain of thrombin commences with I1 and extends to E259
# Protocol: (§3) All assays were carried out under experimental conditions of 5 mM Tris, 0.1% PEG, 145 mM NaCl, pH 7.4 at 37° C. The chromogenic substrates H-D-Phe-Pro-Arg-p-nitroanilide specific for thrombin and H-D-Asp-Arg-Arg-p-nitroanilide specific for activated protein C were purchased from Midwest Bio-Tech (Carmel, Ind.). The values of kcat/Km and kcat were obtained from the analysis of progress curves of the release of p-nitroaniline (measured at 405 nm) as a function of substrate concentration taking into account product inhibition, when present. The interaction of thrombin with fibrinogen and fibrin was studied in terms of the release of fibrinopeptides A and B as described by Vindigni & Di Cera. Biochemistry 35: 4417-4426 (1996) incorporated herein by reference in its entirety. The interaction of thrombin with PAR-1 was studied from the kinetics of cleavage of a soluble fragment corresponding to the extracellular portion of the receptor, as detailed in Arosio et al. Biochemistry 39: 8095-8101 (2000) incorporated herein by reference in its entirety. The inhibition of thrombin by antithrombin III in the presence of heparin, and the activation of protein C in the presence or absence of rabbit thrombomodulin were carried out and analyzed as described in Dang et al. Nat. Biotechnol. 15: 146-149 (1997).
# [5] = tested on: human thrombin, variant E217A; assay: as above; details: E217A thrombin mutant (Gibbs et al.)
# Protocol: as §3
# [6] = biological target: T4, human thrombin, variant W215A/E217A (WE), SEQ ID NO: 3 (Homo sapiens, UniProt P00734, E592A/W590A); assay: as above; details: W215A/E217A (WE); 5 mM Tris, 0.1% PEG, 145 mM NaCl, pH 7.4, 37° C.
# T4 construct: The B chain commences with I1 and extends to E259; made in house; host or cells: baby hamster kidney cells
# Protocol: (§4) Site-directed mutagenesis of human α-thrombin was carried out in a HPC4-pNUT expression vector as described in Arosio et al. Biochemistry 39: 8095-8101 (2000) and incorporated herein by reference in its entirety, using overlap extension PCR with two mutant oligonucleotides: upstream: 5-GGGCATCGTCTCAXXXGGTGAAGGCTG TG-3(SEQ ID NO: 7); downstream: 5-CACAGCCTTCACCXXXTGAGACGATGCCC-3 (SEQ ID NO: 8) and two flanking oligonucleotide primers, BgIII (upstream): 5-[…]-3 (SEQ ID NO: 9 and; EcoRI (downstream): 5-[…]-3 (SEQ ID NO: 10). For the generation of the double mutant variant W215A/E217A (WE) thrombin, the forward primer 5′-[…]-3′ (SEQ ID NO: 11) and the reverse primer 5′-[…]-3′ (SEQ ID NO: 12) were used. […]
# as §2
# [7] = tested on: human thrombin, variant W215A/E217A (WE), SEQ ID NO: 3; assay: as above; details: W215A/E217A (WE) thrombin double mutant
# Protocol: as §4, §2
# [8] = kcat could not be estimated due to the very high Km
SMILES,kcat (FPR) [1] [s⁻¹],kcat/Km (FPR) [1] [M⁻¹ s⁻¹],kcat (FPR) [2] [s⁻¹],kcat/Km (FPR) [2] [M⁻¹ s⁻¹],kcat/Km (H-D-Phe-Pro-Arg-p-nitroanilide) [3] [M⁻¹ s⁻¹],kcat/Km (H-D-Phe-Pro-Arg-p-nitroanilide) [4] [M⁻¹ s⁻¹],drop of kcat/Km for the hydrolysis of H-D-Phe-Pro-Arg-p-nitroanilide [5],kcat/Km (H-D-Phe-Pro-Arg-p-nitroanilide) [6] [M⁻¹ s⁻¹],cleavage of H-D-Phe-Pro-Arg-p-nitroanilide compromised [7],"kcat/Km (LDPR) [1, 8] [M⁻¹ s⁻¹]","kcat/Km (LDPR) [2, 8] [M⁻¹ s⁻¹]"
"NC(N)=NCCC[C@H](NC(=O)[C@@H]1CCCN1C(=O)[C@H](N)Cc1ccccc1)C(=O)Nc1ccc([N+](=O)[O-])cc1 [FPR, H-D-Phe-Pro-Arg-p-nitroanilide]",56 ± 3,8.8e+07 ± 4e+06,43 ± 2,910000 ± 10000,9.7e+07 ± 5e+06,3.8e+06 ± 300000,over 25 fold,2800 ± 100,"over 30,000 fold",–,–
"CC(C)C[C@H](N)C(=O)N[C@@H](CC(=O)O)C(=O)N1CCC[C@H]1C(=O)N[C@@H](CCCN=C(N)N)C(=O)Nc1ccc([N+](=O)[O-])cc1 [LDPR, H-L-Leu-Asp-Pro-Arg-p-nitroanilide] (H-LDPR-pNA)",–,–,–,–,–,–,–,–,–,4.7e+06 ± 900000,25000 ± 1000

# — patent publication US7223583B2, “Antithrombotic thrombin variants” (Emory University, priority 2001, dated 2007)
